From patent EP1383793B1 (priority 2000, dated 2001)
Positions of bridges follow the written chain, without caps; N, C: chain ends. Residues, ends and D or L forms follow the SMILES beside them. No end group written: not given here. *: point of attachment. Biotin = O=C1N[C@H]2[C@H](CS[C@H]2CCCCC(=O)*)N1

What follows are compounds tested against T1, human insulin receptor (HIR) (Homo sapiens, UniProt P06213) (assay: 125I-insulin competition binding assay on solubilised purified receptor). Settings: read-out: HIR affinity.
T1 construct: made in house
T1 sequence (P06213 28-758 limits assumed): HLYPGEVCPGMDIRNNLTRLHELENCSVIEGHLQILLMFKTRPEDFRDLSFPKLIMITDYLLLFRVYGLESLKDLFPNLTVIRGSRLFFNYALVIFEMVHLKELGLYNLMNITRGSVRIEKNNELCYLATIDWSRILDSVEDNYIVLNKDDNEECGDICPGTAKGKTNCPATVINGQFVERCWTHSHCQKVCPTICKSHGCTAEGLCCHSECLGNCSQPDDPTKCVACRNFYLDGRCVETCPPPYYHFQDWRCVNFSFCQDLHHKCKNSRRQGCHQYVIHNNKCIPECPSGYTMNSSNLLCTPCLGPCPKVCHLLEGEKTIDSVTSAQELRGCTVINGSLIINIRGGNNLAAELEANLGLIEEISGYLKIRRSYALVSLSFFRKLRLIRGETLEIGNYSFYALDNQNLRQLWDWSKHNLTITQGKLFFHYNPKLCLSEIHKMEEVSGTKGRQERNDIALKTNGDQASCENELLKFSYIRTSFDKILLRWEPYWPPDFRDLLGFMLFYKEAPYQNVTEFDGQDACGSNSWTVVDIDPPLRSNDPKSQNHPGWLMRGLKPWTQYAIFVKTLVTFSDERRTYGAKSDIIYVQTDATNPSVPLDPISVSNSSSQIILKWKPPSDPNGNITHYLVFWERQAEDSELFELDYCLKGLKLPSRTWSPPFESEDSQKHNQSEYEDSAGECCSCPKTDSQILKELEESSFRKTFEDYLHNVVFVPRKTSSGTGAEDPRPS
T1 sequence (P06213 763-1382 limits assumed): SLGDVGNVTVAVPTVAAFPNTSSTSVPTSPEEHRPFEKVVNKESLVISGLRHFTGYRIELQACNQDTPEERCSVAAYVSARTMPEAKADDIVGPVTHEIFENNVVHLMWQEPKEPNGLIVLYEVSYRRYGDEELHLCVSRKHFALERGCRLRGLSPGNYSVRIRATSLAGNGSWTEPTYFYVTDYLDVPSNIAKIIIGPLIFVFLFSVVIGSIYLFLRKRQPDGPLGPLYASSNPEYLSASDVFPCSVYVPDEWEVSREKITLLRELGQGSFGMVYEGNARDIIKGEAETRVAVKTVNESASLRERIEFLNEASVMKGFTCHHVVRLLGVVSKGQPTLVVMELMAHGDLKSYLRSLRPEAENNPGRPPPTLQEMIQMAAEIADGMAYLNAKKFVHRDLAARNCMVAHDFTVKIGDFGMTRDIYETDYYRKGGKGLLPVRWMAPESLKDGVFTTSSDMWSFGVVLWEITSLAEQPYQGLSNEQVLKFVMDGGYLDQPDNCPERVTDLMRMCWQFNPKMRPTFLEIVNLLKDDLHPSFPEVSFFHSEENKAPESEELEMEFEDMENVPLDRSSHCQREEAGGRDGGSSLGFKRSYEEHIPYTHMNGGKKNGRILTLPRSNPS

Compound	Kd [µM]
AFYEWFAKK-NH2 [Clone S214]	> 20
AFYGWFAKK-NH2 [Clone S215]	> 20
AFYKWFAKK-NH2 [Clone S216]	> 20
ALEEEWAWVQVRSIRSGLPL-NH2 [Clone S284]	> 20
APVSTEELRWGALLFGQWAG-NH2 [Clone S283]	> 20
Ac-FYDWF-NH2 [Clone S184]	> 20
DPFYQGLWEWLRESGEE-NH2 [Clone S289]	> 20
FYDWF-NH2 [Clone S165]	> 20
FYDWFKK-NH2 [Clone S166]	> 20
GFREGQRWYWFVAQVT-NH2 [Clone S278]	> 20
HLSVGEELSWWVALLGQWAR-NH2 [Clone S282]	> 20
WGRSFYRYFETLLAQGI-NH2 [Clone S261]	> 20

Further lines, results first:

Kd [µM]	Compound
0.58	CC(C)[C@H](NC(=O)[C@H](Cc1ccccc1)NC(=O)[C@H](Cc1c[nH]c2ccccc12)NC(=O)[C@H](CC(=O)O)NC(=O)[C@H](Cc1ccc(O)cc1)NC(=O)[C@H](Cc1ccccc1)NC(=O)[C@H](CC(N)=O)NC(=O)[C@H](CCC(=O)O)NC(=O)[C@H](Cc1c[nH]cn1)NC(=O)[C@@H](N)Cc1ccccc1)C(=O)N[C@@H](CCCNC(=N)N)C(=O)N[C@@H](CCC(N)=O)C(=O)N[C@H](C(=O)N[C@@H](CO)C(=O)N[C@@H](CCCCN)C(=O)N[C@@H](CCCCN)C(=O)N[C@@H](CNC(=O)CON=CCCCCC=NOCC(=O)NC[C@H](NC(=O)[C@H](CCCCN)NC(=O)[C@H](CCCCN)NC(=O)[C@H](CO)NC(=O)[C@@H](NC(=O)[C@H](CCC(N)=O)NC(=O)[C@H](CCCNC(=N)N)NC(=O)[C@@H](NC(=O)[C@H](Cc1ccccc1)NC(=O)[C@H](Cc1c[nH]c2ccccc12)NC(=O)[C@H](CC(=O)O)NC(=O)[C@H](Cc1ccc(O)cc1)NC(=O)[C@H](Cc1ccccc1)NC(=O)[C@H](CC(N)=O)NC(=O)[C@H](CCC(=O)O)NC(=O)[C@H](Cc1c[nH]cn1)NC(=O)[C@@H](N)Cc1ccccc1)C(C)C)C(C)C)C(N)=O)C(N)=O)C(C)C [Clone S169]
2.9	CC(C)[C@H](NC(=O)[C@H](Cc1ccccc1)NC(=O)[C@H](Cc1c[nH]c2ccccc12)NC(=O)[C@H](CC(=O)O)NC(=O)[C@H](Cc1ccc(O)cc1)NC(=O)[C@H](Cc1ccccc1)NC(=O)[C@H](CC(N)=O)NC(=O)[C@H](CCC(=O)O)NC(=O)[C@H](Cc1c[nH]cn1)NC(=O)[C@H](Cc1ccccc1)NC(=O)CNC(=O)[C@@H](N)CS)C(=O)N[C@@H](CCCNC(=N)N)C(=O)N[C@@H](CCC(N)=O)C(=O)N[C@H](C(=O)N[C@@H](CO)C(=O)N[C@@H](CCCCN)C(=O)N[C@@H](CCCCN)C(N)=O)C(C)C [Clone S171]
4.8	CC(C)[C@H](NC(=O)[C@H](Cc1ccccc1)NC(=O)[C@H](Cc1c[nH]c2ccccc12)NC(=O)[C@H](CC(=O)O)NC(=O)[C@H](Cc1ccc(O)cc1)NC(=O)[C@H](Cc1ccccc1)NC(=O)[C@H](CC(N)=O)NC(=O)[C@H](CCC(=O)O)NC(=O)[C@H](Cc1c[nH]cn1)NC(=O)[C@@H](N)Cc1ccccc1)C(=O)N[C@@H](CCCNC(=N)N)C(=O)N[C@@H](CCC(N)=O)C(=O)N[C@H](C(=O)N[C@@H](CO)C(=O)N[C@@H](CCCCN)C(=O)N[C@@H](CCCCN)C(=O)N[C@@H](CNC(=O)CON=CCCCCCCC=NOCC(=O)NC[C@H](NC(=O)[C@H](CCCCN)NC(=O)[C@H](CCCCN)NC(=O)[C@H](CO)NC(=O)[C@@H](NC(=O)[C@H](CCC(N)=O)NC(=O)[C@H](CCCNC(=N)N)NC(=O)[C@@H](NC(=O)[C@H](Cc1ccccc1)NC(=O)[C@H](Cc1c[nH]c2ccccc12)NC(=O)[C@H](CC(=O)O)NC(=O)[C@H](Cc1ccc(O)cc1)NC(=O)[C@H](Cc1ccccc1)NC(=O)[C@H](CC(N)=O)NC(=O)[C@H](CCC(=O)O)NC(=O)[C@H](Cc1c[nH]cn1)NC(=O)[C@@H](N)Cc1ccccc1)C(C)C)C(C)C)C(N)=O)C(N)=O)C(C)C [Clone S172]
3.8	AAAAFYDWFAAAAAKK-NH2 [Clone S168]
> 20	AFYDWF-NH2 [Clone S182]
> 20	AFYDWFA-NH2 [Clone S181]
> 20	AFYDWFAK-NH2 [Clone S180]
0.59	AHENFYDWFVRQVSKK-NH2 [Clone S113]
0.61	FAENFYDWFVRQVSKK-NH2 [Clone S112]
> 20	FHENFYDAFVRQVSKK [Clone S222]
0.75	FHENFYDWFVAQVSKK-NH2 [Clone S108]
1	FHENFYDWFVRAVSKK-NH2 [Clone S107]
0.42	FHENFYDWFVRQASKK-NH2 [Clone S106]
0.31	FHENFYDWFVRQVAKK-NH2 [Clone S105]
2.3	LDRQFYRYFQDLLVGFM-NH2 [Clone S260]
5.9	QAPSNFYDWFVREWDEE-NH2 [Clone S287]
4.3	QSFYDYIEELLGGEWKK-NH2 [Clone S288]
14	RWPNFYGYFESLLTHFS-NH2 [Clone S257]
0.11	TGHRLGLDEQFYWWFRDALSG-NH2 [Clone S265]

Same assay, conditions: read-out: Kd (µM) HIR

Kd [µM]	Compound
20	CC(C)C[C@H](NC(=O)[C@H](C)NC(=O)[C@H](Cc1c[nH]c2ccccc12)NC(=O)[C@H](CO)NC(=O)[C@H](Cc1c[nH]cn1)NC(=O)CNC(=O)[C@@H](N)CCCCN)C(=O)N[C@H](C(=O)N[C@@H](CCCNC(=N)N)C(=O)N[C@@H](Cc1c[nH]cn1)C(=O)N[C@H](C(=O)N[C@@H](CC(=O)O)C(=O)N[C@@H](CCCNC(=N)N)C(=O)N[C@@H](CC(C)C)C(=O)N[C@@H](Cc1ccccc1)C(=O)N[C@@H](Cc1ccc(O)cc1)C(=O)N[C@@H](CCC(=O)O)C(=O)N[C@@H](Cc1c[nH]c2ccccc12)C(=O)N[C@@H](Cc1ccccc1)C(=O)N[C@@H](CC(=O)O)C(=O)N[C@@H](CC(C)C)C(=O)N[C@@H](CCCCN)C(=O)N[C@@H](CCCCNC(=O)CCCC[C@@H]1SC[C@@H]2NC(=O)N[C@@H]21)C(N)=O)C(C)C)C(C)C [Clone D104] (H-KGHSWALVRHVDRLFYEWFDLKK(Biotin)-NH2)
2.8	C[C@@H](O)[C@H](NC(=O)[C@@H]1CCCN1C(=O)[C@H](CCCCN)NC(=O)[C@H](CC(=O)O)NC(=O)[C@H](CCCNC(=N)N)NC(=O)[C@@H](N)CCCCN)C(=O)N[C@@H](CC(=O)O)C(=O)N[C@@H](CCC(N)=O)C(=O)N[C@@H](CCC(=O)O)C(=O)N[C@@H](CCC(=O)O)C(=O)N[C@@H](CCC(N)=O)C(=O)N[C@@H](CC(N)=O)C(=O)N[C@@H](Cc1c[nH]c2ccccc12)C(=O)N[C@@H](CO)C(=O)N[C@@H](Cc1ccccc1)C(=O)N[C@@H](Cc1ccc(O)cc1)C(=O)N[C@@H](CCC(=O)O)C(=O)N[C@@H](Cc1c[nH]c2ccccc12)C(=O)N[C@@H](Cc1ccccc1)C(=O)N[C@@H](CCCNC(=N)N)C(=O)N[C@@H](Cc1c[nH]cn1)C(=O)N[C@@H](CCCCN)C(=O)N[C@@H](CCCCNC(=O)CCCC[C@@H]1SC[C@@H]2NC(=O)N[C@@H]21)C(N)=O [Clone D105] (H-KRDKPTDQEEQNWSFYEWFRHKK(Biotin)-NH2)

The compounds below were run on adipocytes (assay: 3H-glucose uptake into adipocytes (fat cell assay, FFC)). Settings: not given.
Format: cell-based, Mouse
Parameters: key to FFC: 0 is no effect; + is agonist; - is antagonist

Compound	FFC
Ac-FYDWF-NH2 [Clone S184]	0
FHENFYDAFVRQVSKK [Clone S222]	0

Each compound was assayed against human IGF-1 receptor (HIGF-1R) (Homo sapiens, UniProt P08069) (assay: 125I-IGF-1 competition binding assay on solubilised purified receptor). Settings: not given.
Sequence of human IGF-1 receptor (HIGF-1R) (P08069 31-736 limits assumed): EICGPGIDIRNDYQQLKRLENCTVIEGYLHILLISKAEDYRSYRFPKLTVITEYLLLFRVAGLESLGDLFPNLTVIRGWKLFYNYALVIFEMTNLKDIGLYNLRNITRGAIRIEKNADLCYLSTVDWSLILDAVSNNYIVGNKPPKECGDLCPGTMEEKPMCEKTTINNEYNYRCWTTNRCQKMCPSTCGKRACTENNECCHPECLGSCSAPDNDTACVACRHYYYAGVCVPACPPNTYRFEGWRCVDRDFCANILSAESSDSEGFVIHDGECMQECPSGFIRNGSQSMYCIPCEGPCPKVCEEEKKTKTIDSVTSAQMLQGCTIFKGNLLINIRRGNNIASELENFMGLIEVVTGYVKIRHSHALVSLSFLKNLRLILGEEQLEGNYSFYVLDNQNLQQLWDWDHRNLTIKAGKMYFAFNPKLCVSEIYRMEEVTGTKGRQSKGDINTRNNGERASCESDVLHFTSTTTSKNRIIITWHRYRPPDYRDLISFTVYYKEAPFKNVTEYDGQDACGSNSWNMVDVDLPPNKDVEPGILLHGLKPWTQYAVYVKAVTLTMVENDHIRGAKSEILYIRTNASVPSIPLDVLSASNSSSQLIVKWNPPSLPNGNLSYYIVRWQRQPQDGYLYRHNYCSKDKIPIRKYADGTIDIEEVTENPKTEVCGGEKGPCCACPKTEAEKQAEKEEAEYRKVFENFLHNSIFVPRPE
Sequence of human IGF-1 receptor (HIGF-1R) (P08069 741-1367 limits assumed): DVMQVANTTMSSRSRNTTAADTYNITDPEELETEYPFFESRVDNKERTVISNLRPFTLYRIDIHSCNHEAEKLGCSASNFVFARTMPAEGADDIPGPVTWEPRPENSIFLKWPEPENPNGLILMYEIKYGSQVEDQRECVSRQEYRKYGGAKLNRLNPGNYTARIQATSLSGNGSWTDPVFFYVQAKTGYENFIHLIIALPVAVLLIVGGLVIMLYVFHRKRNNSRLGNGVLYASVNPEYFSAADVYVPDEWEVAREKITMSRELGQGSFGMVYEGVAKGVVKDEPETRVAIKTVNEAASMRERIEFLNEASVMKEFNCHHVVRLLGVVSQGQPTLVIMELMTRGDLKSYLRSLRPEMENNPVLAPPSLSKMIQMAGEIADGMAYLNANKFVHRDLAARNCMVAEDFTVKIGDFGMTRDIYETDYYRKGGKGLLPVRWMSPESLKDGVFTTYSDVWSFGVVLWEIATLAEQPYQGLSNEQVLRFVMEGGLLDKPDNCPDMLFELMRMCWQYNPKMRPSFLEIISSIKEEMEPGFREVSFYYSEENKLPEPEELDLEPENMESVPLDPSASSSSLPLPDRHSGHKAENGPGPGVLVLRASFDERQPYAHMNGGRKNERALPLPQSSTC

Kd [µM]	Compound
13	CC[C@H](C)[C@H](NC(=O)[C@@H](N)CCCCN)C(=O)NCC(=O)NCC(=O)N[C@@H](CCC(N)=O)C(=O)NCC(=O)N[C@@H](CCC(N)=O)C(=O)N[C@@H](Cc1c[nH]cn1)C(=O)N[C@@H](CCC(N)=O)C(=O)N[C@@H](CC(=O)O)C(=O)NCC(=O)N[C@@H](CC(N)=O)C(=O)N[C@@H](Cc1ccccc1)C(=O)N[C@@H](Cc1ccc(O)cc1)C(=O)N[C@@H](CC(=O)O)C(=O)N[C@@H](Cc1c[nH]c2ccccc12)C(=O)N[C@@H](Cc1ccccc1)C(=O)N[C@H](C(=O)N[C@@H](CCC(=O)O)C(=O)N[C@@H](C)C(=O)N[C@@H](CC(C)C)C(=O)N[C@@H](C)C(=O)N[C@@H](CCCCN)C(=O)N[C@@H](CCCCNC(=O)CCCC[C@@H]1SC[C@@H]2NC(=O)N[C@@H]21)C(N)=O)C(C)C [Clone D101] (H-KIGGQGQHQDGNFYDWFVEALAKK(Biotin)-NH2)
> 20	CC(C)C[C@H](NC(=O)[C@H](C)NC(=O)[C@H](Cc1c[nH]c2ccccc12)NC(=O)[C@H](CO)NC(=O)[C@H](Cc1c[nH]cn1)NC(=O)CNC(=O)[C@@H](N)CCCCN)C(=O)N[C@H](C(=O)N[C@@H](CCCNC(=N)N)C(=O)N[C@@H](Cc1c[nH]cn1)C(=O)N[C@H](C(=O)N[C@@H](CC(=O)O)C(=O)N[C@@H](CCCNC(=N)N)C(=O)N[C@@H](CC(C)C)C(=O)N[C@@H](Cc1ccccc1)C(=O)N[C@@H](Cc1ccc(O)cc1)C(=O)N[C@@H](CCC(=O)O)C(=O)N[C@@H](Cc1c[nH]c2ccccc12)C(=O)N[C@@H](Cc1ccccc1)C(=O)N[C@@H](CC(=O)O)C(=O)N[C@@H](CC(C)C)C(=O)N[C@@H](CCCCN)C(=O)N[C@@H](CCCCNC(=O)CCCC[C@@H]1SC[C@@H]2NC(=O)N[C@@H]21)C(N)=O)C(C)C)C(C)C [Clone D104] (H-KGHSWALVRHVDRLFYEWFDLKK(Biotin)-NH2)
12	C[C@@H](O)[C@H](NC(=O)[C@@H]1CCCN1C(=O)[C@H](CCCCN)NC(=O)[C@H](CC(=O)O)NC(=O)[C@H](CCCNC(=N)N)NC(=O)[C@@H](N)CCCCN)C(=O)N[C@@H](CC(=O)O)C(=O)N[C@@H](CCC(N)=O)C(=O)N[C@@H](CCC(=O)O)C(=O)N[C@@H](CCC(=O)O)C(=O)N[C@@H](CCC(N)=O)C(=O)N[C@@H](CC(N)=O)C(=O)N[C@@H](Cc1c[nH]c2ccccc12)C(=O)N[C@@H](CO)C(=O)N[C@@H](Cc1ccccc1)C(=O)N[C@@H](Cc1ccc(O)cc1)C(=O)N[C@@H](CCC(=O)O)C(=O)N[C@@H](Cc1c[nH]c2ccccc12)C(=O)N[C@@H](Cc1ccccc1)C(=O)N[C@@H](CCCNC(=N)N)C(=O)N[C@@H](Cc1c[nH]cn1)C(=O)N[C@@H](CCCCN)C(=O)N[C@@H](CCCCNC(=O)CCCC[C@@H]1SC[C@@H]2NC(=O)N[C@@H]21)C(N)=O [Clone D105] (H-KRDKPTDQEEQNWSFYEWFRHKK(Biotin)-NH2)
5.1	CC(C)[C@H](NC(=O)[C@H](Cc1ccccc1)NC(=O)[C@H](Cc1c[nH]c2ccccc12)NC(=O)[C@H](CC(=O)O)NC(=O)[C@H](Cc1ccc(O)cc1)NC(=O)[C@H](Cc1ccccc1)NC(=O)[C@H](CC(N)=O)NC(=O)[C@H](CCC(=O)O)NC(=O)[C@H](Cc1c[nH]cn1)NC(=O)[C@@H](N)Cc1ccccc1)C(=O)N[C@@H](CCCNC(=N)N)C(=O)N[C@@H](CCC(N)=O)C(=O)N[C@H](C(=O)N[C@@H](CO)C(=O)N[C@@H](CCCCN)C(=O)N[C@@H](CCCCN)C(=O)O)C(C)C [Clone D117A]

Same assay, conditions: Kd HIGF1R / Kd HIR

Ratio	Compound
>20	CC[C@H](C)[C@H](NC(=O)[C@H](CCC(=O)O)NC(=O)[C@@H](N)CCCCN)C(=O)N[C@@H](CCC(=O)O)C(=O)N[C@@H](C)C(=O)N[C@@H](CCC(=O)O)C(=O)N[C@@H](Cc1c[nH]c2ccccc12)C(=O)NCC(=O)N[C@@H](CCCNC(=N)N)C(=O)N[C@H](C(=O)N[C@@H](CCCNC(=N)N)C(=O)N[C@H]1CSSC[C@@H](C(=O)N[C@H](C(=O)NCC(=O)NCC(=O)N[C@@H](CCCCN)C(=O)N[C@@H](CCCCNC(=O)CCCC[C@@H]2SC[C@@H]3NC(=O)N[C@@H]32)C(=O)O)C(C)C)NC(=O)[C@H](CCCNC(=N)N)NC(=O)CNC(=O)[C@H](Cc2ccc(O)cc2)NC(=O)[C@H](C(C)C)NC(=O)[C@H](CC(C)C)NC1=O)C(C)C [Clone D122A] (H-KEIEAEWGRVRCLVYGRCVGGKK(Biotin)-OH; disulfide 12-18 (inferred); N-terminus assumed)
>200	CC(C)C[C@@H]1NC(=O)[C@H](CO)NC(=O)[C@H](C)NC(=O)CNC(=O)[C@H](Cc2c[nH]c3ccccc23)NC(=O)[C@H](Cc2ccccc2)NC(=O)[C@H](CC(C)C)NC(=O)[C@H](CCC(=O)O)NC(=O)[C@H](CCC(=O)O)NC(=O)[C@H](CC(C)C)NC(=O)[C@H](C(C)C)NC(=O)[C@@H](NC(=O)[C@H](CC(C)C)NC(=O)[C@H](Cc2c[nH]cn2)NC(=O)[C@@H](N)CCCCN)CSSC[C@@H](C(=O)N[C@@H](CO)C(=O)NCC(=O)N[C@@H](CCCCN)C(=O)N[C@@H](CCCCNC(=O)CCCC[C@@H]2SC[C@@H]3NC(=O)N[C@@H]32)C(=O)O)NC(=O)[C@H](Cc2ccc(O)cc2)NC(=O)CNC(=O)[C@H](Cc2ccccc2)NC1=O [Clone D124A] (H-KHLCVLEELFWGASLFGYCSGKK(Biotin)-OH; disulfide 4-19 (inferred); N-terminus assumed)
